Experimental findings from patent publication US11203613B2, “Peptidomimetic proteasome inhibitors” (CORNELL UNIVERSITY, priority 2017, dated 2021) are described below.

Assay [1] concerns the target Human Constitutive (Hu C-20S) β5 Active Subunit (Homo sapiens, UniProt P28074). Put plainly: IC50 determination, human constitutive 20S proteasome β5c (suc-LLVY-AMC hydrolysis). It counts as biochemical. The note with it: Table 2; several values in a cell are repeat determinations; read-out: Hu c-20S IC50.
For the next assay, the target named is Mtb20SOG (Mycobacterium tuberculosis, UniProt P9WHT9). Put plainly: biochemical.
The mark [2] stands for this setting: Table 2, several values in a cell are repeat determinations.

Structures are written as SMILES. Where “and” joins values, the source holds several entries; their conditions need not be identical. Identical values can stand only once. Like-named read-outs stand apart in the source and are kept apart here.

Mtb20SOG, sequence (P9WHT9 58-291): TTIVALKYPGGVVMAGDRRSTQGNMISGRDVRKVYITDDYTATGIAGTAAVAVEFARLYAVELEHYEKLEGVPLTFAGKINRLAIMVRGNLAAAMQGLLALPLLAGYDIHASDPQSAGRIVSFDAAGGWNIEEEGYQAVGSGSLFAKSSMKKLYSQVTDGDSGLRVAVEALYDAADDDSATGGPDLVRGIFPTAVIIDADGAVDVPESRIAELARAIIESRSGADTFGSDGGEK

Take `CC(NC(=O)C(CC(=O)N1CCCCC1C)NC(=O)C1CC1c1ccccc1)c1nc2c(F)cccc2[nH]1` (centres unmarked) [CF-503363]: the IC50 in assay [1] was 8 µM; at Mtb20SOG, 50.7 nM.
Take `CC(C)C1CC1C(=O)N[C@@H](CC(=O)N1CCCC[C@@H]1C)C(=O)N[C@@H](C)c1nc2c(F)cccc2[nH]1` (some centres unmarked) [CF-503381]: the IC50 was 2.47 µM in assay [1]; 41 nM and 36 nM against Mtb20SOG (setting [2]).
With `CC[C@H]1CCCCN1C(=O)C[C@H](NC(=O)[C@@H]1C[C@H]1c1ccccc1)C(=O)N[C@@H](C)c1nc2c(F)cccc2[nH]1` [CF-503382], the IC50 in assay [1] amounted to 12 µM; on Mtb20SOG (setting [2]) it was 166 nM.
As to `CC[C@H]1CCCCN1C(=O)C[C@H](Nc1nc(C(C)C)no1)C(=O)NCc1nc2c(F)cccc2[nH]1` [CF-503417], the IC50 was 3.6 µM and 2.99 µM in assay [1]; 1350 nM and 1770 nM against Mtb20SOG (setting [2]).
With `CC[C@H]1CCCCN1C(=O)C[C@H](Nc1nc(Cc2ccc(F)cc2)no1)C(=O)N[C@@H](C)c1nc2c(F)cccc2[nH]1` [CF-503419], the half-maximal inhibitory concentration (IC50) was 1.36 µM and 1.2 µM in assay [1]; 257 nM and 319 nM against Mtb20SOG.
In the case of `CC[C@H]1CCCCN1C(=O)C[C@H](Nc1nc2ccccc2s1)C(=O)N[C@@H](C)c1nc2c(F)cccc2[nH]1` [CF-503445], the values for the IC50 (in assay [1]; at Mtb20SOG (setting [2])) were 1.19 µM and 1180 nM, respectively.
Turning to `CC[C@H]1CCCCN1C(=O)C[C@H](NC(=O)N(C)Cc1ccccc1)C(=O)N[C@@H](C)c1nc2c(F)cccc2[nH]1` [CF-503451], the IC50 is 3.33 µM and 3.7 µM in assay [1]; 176 nM and 184 nM against Mtb20SOG.
`CC[C@H]1CCCCN1C(=O)C[C@H](NC(=O)N1CCOCC1)C(=O)N[C@@H](C)c1nc2c(F)cccc2[nH]1` [CF-503453]: the results for the IC50 (in assay [1]; on Mtb20SOG (setting [2])) were 4.45 µM and 4690 nM, respectively.
In the case of `CC[C@H]1CCCCN1C(=O)C[C@H](NC(=O)N1CCCCC1)C(=O)N[C@@H](C)c1nc2c(F)cccc2[nH]1` [CF-503454], the half-maximal inhibitory concentration (IC50) was found to be 3 µM in assay [1] and 765 nM against Mtb20SOG (setting [2]).
Regarding `CC[C@H]1CCCCN1C(=O)C[C@H](NC(=O)N(C)CC(C)C)C(=O)N[C@@H](C)c1nc2c(F)cccc2[nH]1` [CF-503457], the IC50 turned out to be 5.03 µM in assay [1] and 2360 nM on Mtb20SOG (setting [2]).
On to `CC(NC(=O)C(CC(=O)N1CCCCC1C)NC(=O)N(C)Cc1ccccc1)c1nc2c(F)cccc2[nH]1` (centres unmarked) [CF-503460], for which the IC50 in assay [1] is 17.2 µM; at Mtb20SOG it was 272 nM.
On to `CC[C@H]1CCCCN1C(=O)C[C@H](NC(=O)OCc1ccccc1)C(=O)N[C@@H](C)c1nc2c(F)cccc2[nH]1` [CF-503461], for which the 50% inhibitory concentration (IC50) is 5.8 µM and 8.2 µM in assay [1]; 68 nM and 75 nM on Mtb20SOG (setting [2]).
Take `CC(NC(=O)C(CC(=O)N1CCCCC1C)NC(=O)OCc1ccccc1)c1nc2c(F)cccc2[nH]1` (centres unmarked) [CF-503462]: the concentration for half-maximal inhibition (IC50) in assay [1] was 14.8 µM; at Mtb20SOG it was 120 nM.
Consider `CC(C)COC(=O)NC(CC(=O)N1CCCCC1C)C(=O)NC(C)c1nc2c(F)cccc2[nH]1` (centres unmarked) [CF-503463], for which the IC50 in assay [1] amounted to 2.5 µM; on Mtb20SOG it was 1140 nM.
With `CC[C@H]1CCCCN1C(=O)C[C@H](NC(=O)C1CC(C)(C)C1)C(=O)N[C@@H](C)c1nc2c(F)cccc2[nH]1` [CF-503464], the IC50 in assay [1] was 1.26 µM; against Mtb20SOG, 10 nM and 19 nM.
With `CC(NC(=O)C(CC(=O)N1CCCCC1C)NC(=O)C1CC(C)(C)C1)c1nc(-c2ccc(F)cc2F)c[nH]1` (centres unmarked) [CF-503474], the IC50 in assay [1] was determined as 5.65 µM; on Mtb20SOG, 14 nM.
Consider `CC(NC(=O)C(CC(=O)N1CCCCC1C)NC(=O)C1CC1C(C)C)c1nc(-c2ccc(F)cc2F)c[nH]1` (centres unmarked) [CF-503475], for which the IC50 was 4.77 µM in assay [1] and 34 nM on Mtb20SOG.
`CC(C)c1noc(N[C@@H](CC(=O)N2CCCC[C@@H]2C)C(=O)N[C@@H](C)c2ncc(-c3ccc(F)cc3F)[nH]2)n1` [CF-503477]: the IC50 in assay [1] stood at 2.29 µM; against Mtb20SOG (setting [2]) it was 2050 nM.
As to `Cc1cc(C(=O)N[C@@H](CC(=O)N2CCCC[C@@H]2C)C(=O)NC(C)c2nc3ccccc3[nH]2)no1` (some centres unmarked) [drawing 395], the IC50 in assay [1] was 71.6 µM; at Mtb20SOG (setting [2]), 549 nM and 331 nM.

Usually IC50 stands for the concentration that inhibits the measured activity by half.
